The SangsterLogP compilation
Non-standard residues stand in square brackets, D forms with d. Residues, ends and D or L forms follow the SMILES beside them. ξ: configuration not given here. *: point of attachment. ξF = NC(Cc1ccccc1)C(=O)O; Cbz = O=C(OCc1ccccc1)*

test: method code SF, from Hansch, C. & Leo, A. (1987). Log P database [Dataset]. Pomona College Medicinal Chemistry Project.

Row | SMILES | logP
1 | O=[N+]([O-])c1ccc(OCCn2ccnn2)cc1 | 1.19
2 | NC(=O)c1ccccc1F | 0.64
3 | O=C(COc1ccccc1)Nc1ccccc1 | 2.73
4 | OCC(Br)(Br)Br | 2.1
5 | Cc1cccs1 | 2.33
6 | CC(C)CCC(=O)c1ccoc1 | 2.76
7 | CC(C)C1=Nc2cc(Cl)ccc2S(=O)(=O)N1 | 2
8 | C=CCc1ccccc1 | 3.23
9 | COc1ccc2ncccc2c1 | 2.2
10 | c1cc2[nH]cnc2cn1 | 0.18
11 | Cn1c(=O)ccc2ccccc21 | 1.45
12 | c1ccc2oncc2c1 | 1.63
13 | N#CN=[N+]([O-])c1cccc([N+](=O)[O-])c1 | 1.45
14 | CC(=O)n1ccnc1 | -0.34
15 | O=c1cnc2ccccc2[nH]1 | 0.8
16 | O=C(O)c1cc(=O)c2cc3c(cc2o1)CCCC3 | 3.4
17 | O=C1C(N2CCN(CCO)CC2)=C(N2CC2)C(=O)C(N2CCN(CCO)CC2)=C1N1CC1 | -0.73
18 | CCCCN(C)C | 1.7
19 | OCC(F)(F)C(F)(F)C(F)(F)F | 1.81
20 | NC(=O)CI | -0.19
21 | Nc1ccc(C2CCCCC2)cc1 | 3.65
22 | O=C1OCc2ccccc21 | 0.8
23 | NS(=O)(=O)NCCc1ccccc1 | 0.81
24 | COC(=O)c1cccc(NC(C)=O)c1 | 1.46
25 | COc1cccc(C=C(C(N)=O)C(N)=O)c1 | 0.01
26 | CCOC(=O)NC(O)C(Cl)(Cl)Cl (stereo not drawn) | 1.84

Row | SMILES | logP
27 | C1OCOCO1 | -0.43
28 | CNP(=O)(OC)Oc1cc(Cl)c(Cl)cc1Cl (stereo not drawn) | 3.06
29 | CC1CCCN(N=O)C1=O (stereo not drawn) | -0.66
30 | CC1=NS(=O)(=O)c2ccc(C(F)(F)F)cc2N1 | 1.59
31 | CC(=O)Oc1ccccc1Cl | 2.18
32 | CCOP(=S)(OCC)SCS(=O)(=O)C(C)(C)C | 2.48
33 | COC[C@H]1O[C@@H](O)[C@H](NC(=O)N(CCCl)N=O)[C@@H](OC)[C@@H]1OC | 0.8
34 | CN(C)CCc1ccsc1 | 1.94
35 | CC(C)c1cccc(C(C)C)c1N | 3.18
36 | CCOC(=O)C(=Cc1ccc(OC)cc1OC)C(C)=O | 2.41
37 | CCOC(=O)C(=Cc1cccc(OC)c1)C(=O)OCC | 3.18
38 | C1OC1CN1CCN(CC2CO2)CC1 (stereo not drawn) | -0.84
39 | O=c1cc[nH]cn1 | -1.38
40 | CC(=O)NC(=O)NC(C)=O | -0.68
41 | O=C(Nc1ccc(Cl)c(Cl)c1)c1ccccc1 | 4.42
42 | CN(C)C(=O)Nc1ccc(OCc2ccc(Cl)cc2Cl)cc1 | 4.1
43 | CC(=O)O[C@@H]1[C@@H](OC(C)=O)[C@H](OC(C)=O)CO[C@H]1NC(=O)N(CCCl)N=O | 1.05
44 | O=C(Nc1ccccc1)Oc1ccccc1 | 3.3
45 | COc1cc(C=O)ccc1OCCOC(=O)c1ccc(Cl)cc1 | 3.71
46 | O=C(NCC(O)CO)Nc1ccccc1 (stereo not drawn) | 0.28
47 | C(=N\N1CCCCC1)/c1ccccc1 | 3.04
48 | Cc1ccccc1Cl | 3.42
49 | CNC(=O)Oc1cc(C)c(C)cc1C | 2.52
50 | O=C(Nc1ccccc1)c1ccc(C(=O)Nc2ccccc2)cc1 | 3.72
51 | CCOC(=O)C(=Cc1cccc(Cl)c1)C(C)=O | 2.97
52 | COc1cccc(C=C(C(C)=O)C(C)=O)c1 | 1.79

Row | SMILES | logP
53 | CC(C)[C@H](NC(=O)C(Cc1ccccc1)NC(=O)OCc1ccccc1)C(=O)O (stereo partly drawn) (Cbz-[ξF]-Val-OH) | 2.88
54 | CCOC(=O)C(=Cc1cccc(OCC)c1)C(C)=O | 2.71
55 | CN(C=O)c1ccccc1 | 1.09
56 | CC1=Nc2ccc(F)cc2S(=O)(=O)N1 | 0.62
57 | Nc1nccs1 | 0.38
58 | O=[N+]([O-])c1ccc(C=Cc2nccc(Cl)n2)o1 | 1.31
59 | Clc1nnnn1-c1ccccc1 | 1.48
60 | c1ccc(N2CCOCC2)cc1 | 1.36
61 | COC(=O)C[C@](O)(CCC(C)(C)O)C(=O)O[C@@H]1C(OC)=C[C@]23CCCN2CCc2cc4c(cc2[C@H]13)OCO4 | 0.65
62 | CCCC(O)CCC | 2.22
63 | Cc1nnc2n1-c1sc(Br)cc1C(c1ccccc1Cl)=NC2 | 2.79
64 | O=C1C2(Cl)C3(Cl)C4(Cl)C(Cl)(Cl)C5(Cl)C3(Cl)C1(Cl)C5(Cl)C24Cl (stereo not drawn) | 5.41
65 | CC(=O)c1ccc[nH]1 | 0.93
66 | CC#CC | 1.46
67 | FC(F)(F)c1cccc2cccnc12 | 2.5
68 | N#CC(=Cc1ccccc1)C(=O)Nc1ccccc1 | 3.41
69 | CCN(CC)C(=O)[C@@H]1C=C2c3cccc4[nH]cc(c34)C[C@H]2N(C)C1 | 2.95
70 | O=C1CCCCC1 | 0.81
71 | C=CCN(C)/N=N/c1ccc(C(N)=O)cc1 | 2.09
72 | CCNC(=O)Nc1ccccc1 | 1.64
73 | CC(=O)OCC(=O)[C@@]12OC(C)(C)O[C@@H]1C[C@H]1[C@@H]3C[C@H](F)C4=CC(=O)C=C[C@]4(C)[C@@]3(F)[C@@H](O)C[C@@]12C | 3.19
74 | CCC(C)NC(=O)C(=Cc1ccccc1)c1ccccc1 (stereo not drawn) | 4.05
75 | NC(=O)C(Cl)(Cl)Cl | 1.04
76 | O=S1(=O)NC(C2=CCCC2)=Nc2ccccc21 | 1.69
77 | N/N=C1\c2ccccc2C(=O)C1C(=O)C(c1ccccc1)c1ccccc1 (stereo not drawn) | 3.62
78 | OCCCc1nc2ccccc2[nH]1 | 1.25
